# Assay results: patent US8628752B2, “Methods of identifying HSP90 inhibitors with less ocular toxicity” (Synta Pharmaceuticals Corp., priority 2011, dated 2014)
# Values joined by “and” are separate entries in the source; they are usually repeats but may differ in a detail not shown here. Equal values may be shown once. “Also recorded” adds a separate entry of the source. Read-outs that look alike come from different tables or passages of the source.
# Columns and labels:
# [1] = tested on: photoreceptors; details: rat, in vivo, iv; for Incidences (#affected/total): male, Sprague-Dawley, 2 days
# [2] = tested on: HER2 in BT-474 cells; experiment: HER2 degradation assay (anti-HER2 FITC flow cytometry); assay type: cell-based; details: 24 h treatment
# Procedure: HER2 positive cells were determined using anti-HER2 conjugated FITC (BD, 540553) according to manufacturer's instruction (BD Biosciences). 0.2×10^6 BT-474 cells were plated in 12-well culture plates in Dulbecco's Modified Eagle's Medium containing 10% fetal bovine serum and 1.5 g/L sodium bicarbonate. Cells were treated with the indicated compounds over a 10-1000 nM concentration range for 24 h. Cells were collected and stained with a FITC-conjugated anti-HER2 antibody for 30 min at room temperature. HER2-positive cells (fluorescence intensity) were determined by flow cytometry (excitation at 495 nm and emission at 529 nm) using a Becton Dickinson LSRII equipped with CellQuest Pro software. […]
# [3] = for Elimination from the retina (in words) / Retina/plasma (R/P) ratio (in words): rats; for Retina/plasma (R/P) ratio (in words): 6 h post-dose
# [4] = in vivo; details: male, Sprague-Dawley, rat, iv; for Kp at 0.5 h / Kp at 6 h: in vivo
# [5] = in vivo; details: male, Sprague-Dawley, rat, iv
# [6] = tested on: photoreceptors; experiment: Photoreceptor degeneration/apoptosis in rat eyes (H&E, TUNEL) after i.v. dosing; details: for Photoreceptor degeneration (in words) / Ocular toxicity / photoreceptor injury in rats (in words): rats; for Ocular toxicity / photoreceptor injury in rats (in words): short-term studies
# [7] = phase I trials, clinical reports, cited from earlier work
# [8] = tested on: retina; details: repeated doses; cited from earlier work
# [9] = SD rats, all testing doses of the compound, i.v.
# [10] = male, Sprague-Dawley, rat, in vivo, iv, 2 days
# [11] = male, Sprague-Dawley, rat, in vivo, iv
# [12] = male, Sprague-Dawley, rat, in vivo, iv, 0.5 h
# [13] = male, Sprague-Dawley, rat, in vivo, iv, 6 h
# [14] = SD rats, i.v., between 0.5 and 6 h post-dose
# [15] = SD rats, i.v., Day 2, 0.5 h, mg/kg: AUY922 10, 17-DMAG 20, Compound 1 50, 17-AAG 80
# [16] = SD rats, i.v., Day 2, 6 h, mg/kg: AUY922 10, 17-DMAG 20, Compound 1 50, 17-AAG 80
# [17] = SD rats, 8, 20, 60, 100/80 mg/kg/d x2, i.v.
smiles,measurement,setting,value
CC(C)c1cc(C(=O)N2Cc3ccc(CN4CCN(C)CC4)cc3C2)c(O)cc1O [AT-13387],Mortality (in-house study),[9],0/9
same,Other findings (in-house study),[10],↓ Body weight gain
same,Incidences (#affected/total),[1]; 3 mg/kg/day,6/6
same,Incidences (#affected/total),[1]; 30 mg/kg/day,0/3
same,Incidences (#affected/total),[1]; 60 mg/kg/day,2/3
CCNC(=O)c1noc(-c2cc(C(C)C)c(O)cc2O)c1-c1ccc(CN2CCOCC2)cc1 [AUY-922],Toxicity: mortality,"SD rats, 3-60 mg/kg i.v., in 2-3 days post-dose",No mortality
same,Mortality (in-house study),[9],0/12
same,Other findings (in-house study),[10],tail edema
same,Other findings (in-house study),"rat, in vivo, iv",↓ Body weight gain)
same,IC50,[2],< 30 nM
same,IC50,"[2]; Homo sapiens, BT-474, 24 h",30 nM
same,Retina % remain at 6 h of drug present at 0.5 h,[3]; [11],(53.5) %
same,Retina %↓ 0.5-6 h (drug eliminated from retina),[3]; [11],46.5%
same,Plasma concentration,[3]; [12],1120 nM
same,Retina concentration,[3]; [12],4.75 µM
same,Plasma concentration,[3]; [13],15.4 nM
same,Retina concentration,[3]; [13],2.54 µM
same,Incidences (#affected/total),[1]; 3 mg/kg/day,0/3
same,Incidences (#affected/total),[1]; 60 mg/kg/day,3/3
same,Ocular toxicity / photoreceptor injury in rats (in words),[1],most severe ocular effects
same,TUNEL,[1],+-++
same,Kp at 0.5 h,[4],4.24
same,Kp at 6 h,[4],165
"CC(C)c1cc(-c2nnc(S)n2-c2ccc3c(ccn3C)c2)c(O)cc1O [Compound 1, 4-isopropyl-6-(5-mercapto-4-(1-methyl-1H-indol-5-yl)-4H-1,2,4-triazol-3-yl)benzene-1,3-diol]",Mortality (in-house study),[10],0/15
same,Other findings (in-house study),"rat, in vivo, 100 mg/kg",(ECG change
same,IC50,"[2]; Homo sapiens, BT-474, 24 h",60 nM
same,MTD,[5],100 mg/kg
same,Retina %↓ 0.5-6 h (drug eliminated from retina),[3]; [14],78.5%
same,Retina %↓ 0.5-6 h (drug eliminated from retina),"[3]; SD rats, i.v., between 0.5 and 6 h post-dose, listed as compound 1",79%
same,Incidences (#affected/total),"[6]; SD rats, 10 mg/kg/d x2, i.v.",0/3
same,Severity (TUNEL + area & density),"[6]; SD rats, 10 mg/kg/d x2, i.v.",(−) ((−) ≦ 20 cells/section)
same,Incidences (#affected/total),"[6]; SD rats, 20 mg/kg/d x2, i.v.",0/3
same,Severity (TUNEL + area & density),"[6]; SD rats, 20 mg/kg/d x2, i.v.",(−) ((−) ≦ 20 cells/section)
same,Incidences (#affected/total),"[6]; SD rats, 30 mg/kg/d x2, i.v.",0/3
same,Severity (TUNEL + area & density),"[6]; SD rats, 30 mg/kg/d x2, i.v.","(−) (1/3±, 22 ((−) ≦ 20 cells/section)"
same,Photoreceptor degeneration/apoptosis,"[6]; SD rats, 50 mg/kg i.v.",(±)
same,Incidences (#affected/total),"[6]; SD rats, 50 mg/kg/d x2, i.v.",3/3
same,Severity (TUNEL + area & density),"[6]; SD rats, 50 mg/kg/d x2, i.v.",(±) ((±) 21-30 cells/section)
same,Incidences (#affected/total),"[6]; SD rats, 100 mg/kg/d x2, i.v.",3/3
same,Photoreceptor degeneration/apoptosis,"[6]; SD rats, 10, 20, 30 mg/kg i.v.",(−) ((−) ≦20 cells/section)
same,Photoreceptor degeneration (in words),[6]; doses active in animal tumor models,Photoreceptor degeneration was not observed
same,Photoreceptor degeneration (in words),[6]; higher dose(s),only minimal degeneration; also recorded: only minimal-mild changes
same,Ocular toxicity / photoreceptor injury in rats (in words),[6]; i.v.,Mild or no ocular toxicity
same,concentration at 0.5 h,[4]; cerebrospinal fluid,19.4 nM
same,concentration at 0.5 h,[4]; plasma,19500 nM
same,concentration at 6 h,[4]; plasma,104 nM
same,concentration at 0.5 h,[4]; retina,10400 nM
same,concentration at 6 h,[4]; retina,2240 nM
C=CCNC1=C2C[C@@H](C)C[C@H](OC)[C@H](O)[C@@H](C)/C=C(\C)[C@H](OC(N)=O)[C@@H](OC)/C=C\C=C(/C)C(=O)NC(=CC1=O)C2=O [Compound 17-AAG],Mortality (in-house study),"SD rats, 100 mg/kg in 5 min","1/3; 100 mg/kg in 5 min,"
same,Mortality (in-house study),"SD rats, 120 mg/kg in 5 min",1/1: 120 mg/kg in 5 min.
same,Toxicity: Mortality (dose),"SD rats, i.v.",100 mg/kg
same,IC50,[2],100 to 150 nM
same,CSF concentration,[3]; [15],0.434 µM
same,Plasma concentration,[3]; [15],26500 nM
same,R/P ratio (retina/plasma),[3]; [15],1.70
same,Retina concentration,[3]; [15],45.1 µM
same,CSF concentration,[3]; [16],0.00433 µM
same,Plasma concentration,[3]; [16],262 nM
same,R/P ratio (retina/plasma),[3]; [16],9.58
same,Retina concentration,[3]; [16],2.51 µM
same,Retina % remain at 6 h of drug present at 0.5 h,[3]; [14],(5.6) %
same,Retina %↓ 0.5-6 h (drug eliminated from retina),[3]; [14],94% and 94.4%
same,Elimination from the retina (in words),[3],more rapidly eliminated from the retina
same,Retina/plasma (R/P) ratio (in words),[3],lower R/P ratios; also recorded: low R/P ratio
same,Photoreceptor degeneration/apoptosis,"[6]; SD rats, 8, 20, 60 mg/kg i.v.",(−) ((−) ≦20 cells/section)
same,Incidences (#affected/total),[6]; [17],0/10
same,Severity (TUNEL + area & density),[6]; [17],(−) ((−) ≦ 20 cells/section)
same,Photoreceptor degeneration/apoptosis,"[6]; SD rats, 80 (100) mg/kg i.v.",(−) ((−) ≦20 cells/section)
same,TUNEL,"[6]; SD rats, i.v., mg/kg: AUY922 10, 17-DMAG 20, Compound 1 50, 17-AAG 80",(−) ((−) ≦ 20 cells/section)
same,Ocular toxicity / photoreceptor injury in rats (in words),[6]; i.v.,Mild or no ocular toxicity; also recorded: absence of ocular effects; also recorded: did not produce detectable photoreceptor injury; also recorded: did not induce ocular toxicity in rats
same,Visual adverse effects in clinical trials / clinical subjects,[7],absence of clinically-reported visual changes
CO[C@H]1/C=C\C=C(/C)C(=O)NC2=CC(=O)C(NCCN(C)C)=C(C[C@@H](C)C[C@H](OC)[C@H](O)[C@@H](C)/C=C(\C)[C@@H]1OC(N)=O)C2=O [Compound 17-DMAG],Mortality (in-house study),"SD rats, 25 mg/kg/d x3, 72 hrs",3/3 @ 25
same,Toxicity: Mortality (dose),"SD rats, i.v., x 3 days",25 mg/kg/dx
same,IC50,[2]; Homo sapiens,60 nM
same,CSF concentration,[3]; [15],0.0799 µM
same,Plasma concentration,[3]; [15],4710 nM
same,Retina concentration,[3]; [15],32.0 µM
same,CSF concentration,[3]; [16],0.00376 µM
same,Plasma concentration,[3]; [16],317 nM
same,Retina concentration,[3]; [16],16.2 µM
same,Retina %↓ 0.5-6 h (drug eliminated from retina),[3]; [14],49.4%
same,Elimination from the retina (in words),[3],longer retention time; also recorded: slow elimination rate
same,Retina/plasma (R/P) ratio (in words),[3],high retina/plasma (R/P) ratio
same,Incidences (#affected/total),"[6]; SD rats, 10 mg/kg/d x2, i.v.",3/3
same,Incidences (#affected/total),"[6]; SD rats, 20, 25 mg/kg/d x2, i.v.",6/6
same,Ocular toxicity / photoreceptor injury in rats (in words),[6]; i.v.,marked photoreceptor cell death; also recorded: produced ocular toxicity
same,Visual adverse effects in clinical trials / clinical subjects,[7]; listed as alvespimycin,"Visual symptoms, including blurred vision"
same,Kp at 0.5 h,[4],6.79
same,Kp at 6 h,[4],51.1
CC1(C)CC(=O)c2c(C(F)(F)F)nn(-c3ccc(C(N)=O)c(N[C@H]4CC[C@H](OC(=O)CN)CC4)c3)c2C1 [PF-04929113],Retinal injury in dogs,[8],photoreceptor degeneration and/or cell death
